# Laboratory results published in patent US9045403B2 (Coyote Pharmaceuticals, Inc., priority 2012, dated 2015).
# Experiments:
# [1] = tested on: Sprague-Dawley rats injected with Kainic acid; assay: Kainic acid induced neurodegeneration and seizure in rats (Example 21); format: in vivo, rat; details: oral
# Text: Seizure behaviors were observed and scored (Ref. R. J. Racine, Modification of seizure activity by electrical stimulation: II. Motor seizure, Electroencephalogr. Clin. Neurophysiol. 32 (1972) 281-294. Modifications were made for the methods). Brain tissues of rats were sectioned on histology slides, and neurons in hippocampus tissues were stained by Nissl. Neurons damaged by Kainic acid and behavior scores were quantified.
# [2] = tested on: Mouse Neuro2A neuroblastoma cells; assay: Neuro2A cells with neurites after GGTI-298 (Example 16); format: cell-based; details: 10 μM, 48 hrs
# Procedure: Mouse Neuro2A neuroblastoma cells were cultured in DMEM supplemented with 10% FBS for 24 hrs. […] Then differentiation was induced by retinoic acid in DMEM supplemented with 2% FBS. The cell culture was incubated with a Geranylgeranyl Transferase inhibitor, GGTI-298. […]
# Rap1 = assay: Prenylation of Rap1 in Neuro2A cells with GGTI-298 (western blot); format: cell-based, mouse; details: 100 nM; percentage of control treatments (GGTI only)
# Procedure: Mouse neuroblastoma Neuro2A cells were cultured in DMEM supplemented with 10% FBS for 24 hrs. The cells were treated with 102GGA derivative compounds for 24 hrs first before GGTase inhibitor GGTI-298 was added to the culture medium for additional 24 hr incubation. […] Both un-prenylated and total Rap1 protein bands were quantified using Image J and normalized to their respective loading control GAPDH. The results for control and each compound treatment were calculated as the ratio of normalized un-prenylated Rap1 to total Rap1, and averaged from two biological repeats of one experiment. The final results were presented as a percentage of the control treatments (GGTI only) from the same batch experiment. The data shown in the chart were averaged from two repeats of one experiment and presented as the ratio of normalized un-prenylated Rap1 to total Rap1. Compound ID numbers in table refer to structures in Table 1 and Table 2.
# HSP70 [3] = assay: HSP70 expression in Neuro2A cells by western blot; format: cell-based, mouse; details: for HSP70 western signal (absence of compounds = 1.00): 48 hours, then GGTI-298
# Procedure: Differentiation was induced and cells incubated with geranylgeranyl transferase I inhibitor, GGTI-298. Cells were harvested and lysates were prepared and analyzed by western blot for HSP70 and HSP90. Western signals in the absence of the compounds were normalized as 1.00.
# [4] = tested on: Murine neuro2A neuroblastoma cells; assay: Neurite outgrowth of neuro2A cells inhibited with GGTI-298 (Example 30); format: cell-based, mouse; details: for Median Counts of cells with neurite outgrowth: CNS-102 vs CNS-103 experiment (no inhibition 60.3, PBS 18.5); for Relative %: relative to uninhibited count
# Procedure: Differentiation was induced and cells incubated with geranylgeranyl transferase I inhibitor, GGTI-298. After 24 h digital images were taken and neurite outgrowth was quantified. The comparisons of the neuroprotective effect of these three compounds are shown below.
# The estimated mean log10 counts, from five replicate wells for each treatment group were calculated by PROC GLM in SAS assuming a pooled estimate of variation.
# The estimated mean log10 counts from five replicate wells for each treatment group were calculated by PROC GLM in SAS assuming a pooled estimate of variation.
# Differences in mean log(counts) between treatments for each concentration were calculated using PROC GLM in SAS. The p-value given is for the comparison of the estimated difference to zero, the expected difference value for no treatment effect. The anti-log of the differences represent the estimated ratio of counts (relative effect on inhibition) and are tabulated below along with the lower and upper 95% confidence intervals.
# Neuro2A cells = Neuro2A cells that extended neurites, with GGTI-298 (Example 18); format: cell-based, mouse; details: 0.1-1 μM, vehicle 0.0-0.20
# Text: After differentiation was induced, cells that extended neurites were counted.
# HSP70 [5] = assay: HSP70 levels in Neuro 2A cells by ELISA; format: cell-based, mouse; details: 10 uM compound for 48 hrs, then GGTI-298 24 hrs
# Procedure: Mouse neuroblastoma 2a cells were cultured in DMEM with 10% FBS for 24 hrs. […] After 24 hrs cells were harvested and lysates were prepared and analyzed by ELISA for HSP70. Compound ID numbers in table refer to structures in Table 1 and Table 2.
# [6] = tested on: Neuro2A cells treated with A-beta (O); assay: Rescue of amyloid-beta oligomer induced cytotoxicity in Neuro 2A cells (CellTiter-Glo); format: cell-based; details: Mus musculus, N2a, compound 1 uM, A-beta (O) together with compound 48 hr, read-out: % viability vs. untreated
# Procedure: Preparation of amyloid-beta oligomer (A-beta (O)): Synthetic wild type A-beta (1-42) was purchased from American Peptide, and first dissolved with hexafluoroisopropanol (HFIP), then dried in the blowing tissue culture hood overnight to form a film in the eppendorf tube. The A-beta peptide film was first resuspended with DMSO to a concentration of 5 mM, further diluted with DMEM containing N2 supplement (Invitrogen) to achieve a concentration of 100 μM, and then sonicated in room temperature water bath for 10 minutes. The 100 μM peptide solution was then incubated at 4° C. for 24 hr and thoroughly vortexed before applied to cells.
# Mouse neuroblastoma Neuro2A cells were plated in 96-well plates and cultured in DMEM supplemented with 10% FBS for 24 hr. […] At the end of incubation, cells were harvested and subjected to viability assay using CellTiter-Glo Luminescent Cell Viability Assay Kit (Promega). The data for each treatment was calculated as average of 4 replicates and normalized to that of A-beta (O) treated only. Compound ID numbers in table refer to structures in Table 1 and Table 2.
# [7] = 10000 nM, CNS-102 vs CNS-103 experiment
compound,measurement,setting,value
CC(=O)CC/C=C(/C)CC/C=C(\C)CC/C=C(\C)CCC=C(C)C [CNS-103],Mean of Hippocampus CA3 neurons damaged (Arbitrary units),[1]; 12 mg/Kg rat,8.16 Arbitrary units
same,Mean of Hippocampus CA3 neurons damaged (Arbitrary units),[1]; 25 mg/Kg rat,10.64 Arbitrary units
same,Mean of cell numbers (Arbitrary units),[2],0.195 Arbitrary units
same,unprenylated/total RAP1 (%),Rap1,96%
same,HSP70 western signal (absence of compounds = 1.00),HSP70 [3]; 100 nM,1.00
same,HSP70 western signal (absence of compounds = 1.00),HSP70 [3]; 10 μM,0.99
same,induction of HSP70 expression (in words),"HSP70 [3]; Neuro2A cells, western blot",failed to induce expression of HSP70
same,Median Counts of cells with neurite outgrowth,[4]; 10 nM,26.7
same,Relative %,"[4]; 10 nM, CNS-102 vs CNS-103 experiment",44.3%
same,Median Counts of cells with neurite outgrowth,[4]; 100 nM,29.3
same,Relative %,"[4]; 100 nM, CNS-102 vs CNS-103 experiment",48.6%
same,Median Counts of cells with neurite outgrowth,[4]; 1000 nM,28.7
same,Relative %,"[4]; 1000 nM, CNS-102 vs CNS-103 experiment",47.6%
same,Protection %,[4]; [7],−5.3%
same,Median Counts of cells with neurite outgrowth,[4]; 10000 nM,16.3
same,Relative %,[4]; [7],27%
same,maximum protection,"[4]; CNS-102 vs CNS-103 experiment, FIG. 4B",~26%
same,Mean of cell numbers (Arbitrary units),Neuro2A cells,0.20-0.45 Arbitrary units
"CC(C)=CCC/C(C)=C/CC/C(C)=C/COC(=S)NC1CC1 [Compound 9d, Cyclopropyl 2E, 6E-farnesyl thiocarbamate]",HSP70 ELISA signal (absence of compound normalized as 1.00),HSP70 [5],0.95
CCC(=O)CC/C=C(\C)CC/C=C(\C)CCC=C(C)C [Compound 102],viability at 1 µM,[6],140%
CC(C)=CCC/C(C)=C/CC/C(C)=C/CC/C(C)=C/CCC(C)=NO [Compound 103],viability at 1 µM,[6],128%
